Tests used:
HN5 xenograft = experiment: HN5 head and neck xenograft with fractionated irradiation; type: in vivo, CD-1 nude mice; details: 60 mg/kg daily oral and/or 4 Gy irradiation for 5 days
Procedure: HN5 head and neck cells were injected intramuscularly into CD-1 nude mice. Upon tumors reaching 8.5 mm in diameter, animals were enrolled in the study and received either vehicle or the compound of Example 7 (days 0-5) with or without a 4 Gy dose 6 hours after the compound of Example 7 on days 1-5 of the study (FIG. 12). Tumor size was measured every other day to determine the rate of growth (FIG. 13).

[1] = tested on: OCI-AML3 cells constitutively expressing luciferase; experiment: OCI-AML3 leukemia model in NSG mice (IVIS imaging, survival); type: in vivo, NSG nude mice
Procedure: (§1) The OCI-AML3 cell line was treated with various concentrations of the compound of Example 7 for 7 days and the percent of viable cells normalized to control cells treated with DMSO (FIG. 8). CD45+ primary AML cells from an AML patient or CD45+ normal bone marrow cells from a healthy volunteer were treated with the compound of Example 7 for 4 days and the number of viable cells and percentage of apoptotic (annexin V) were determined (FIGS. 9a and 9b). […] OCI-AML3 cells constitutively expressing luciferase were tail vein injected in NSG nude mice. 17 days after cell injection, luciferin was injected into animals and luciferase signal was measured using an IVIS imaging system to determine tumor burden and for randomization of subjects into study groups. On day 18, animals began receiving daily oral doses of vehicle or 60 mpk of the compound of Example 7 were started and continued throughout the study. On day 28, imaging was performed again to determine tumor burden (FIG. 10).

D423 cells = experiment: Cellular assay in ENO-1 deleted D423 cells; type: cell-based; details: D423, various concentrations
Text: (§2) NB-1, Gli56, and D423 cell lines are deleted for ENO-1 (GLI56 and D423) or PGD, which renders them with reduced glycolytic capacity (Muller, F. et al., Nature, 2012, 488, 337-42).

NB-1 xenografts = experiment: NB-1 xenograft model; type: in vivo, CD-1 nude mice; details: 40 mg/kg daily oral
Text: To establish activity and provide in vivo proof of concept, NB-1 cells were implanted into CD-1 nude mice and treated with vehicle or 40 mpk of the compound of Example 7 po daily hen tumors reached 400-500 mm^3. Tumor size was measure 3×/week using caliper measurements (FIG. 4).

293T-HRE-GFP-luc cells = experiment: Cell-based reporter assay for IC50 determinations (HRE-luciferase, hypoxia); details: 6 hrs hypoxia (1% O2), luminescence
In short: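 IC50s come from four-parameter logistic fits of luminescence. Compounds in 1:3 DMSO series were added to 293T-HRE-GFP-luc cells, 30 min normoxia preceding 6 hrs at 1% O2, 37° C; HRE-luciferase signal was then measured with Steadylite Plus reagent.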

[2] = tested on: CD45+ normal bone marrow cells from a healthy volunteer; experiment: Normal bone marrow cells, viable cells and annexin V; type: cell-based, human; details: 4 days
Procedure: as §1

H460 xenografts = experiment: H460 non-small cell lung cancer xenograft; type: in vivo, CD-1 nude mice
Procedure: Non-Small Cell Lung Cancer: H460 cells were implanted subcutaneously in CD-1 nude mice and treated with the compound of Example 7 (40 mpk qdx 14) delivered by oral gavage for 14 days. Animals were randomized into study groups and the study initiated when the average tumor volume was 400 mm^3. During treatment, tumor volume was measured three times per week to determine tumor growth over the course of the study (FIG. 5). Nine tumor bearing mice were included in each group. On day 15, 3 hours prior to take down, hypoxyprobe (Hypoxyprobe, Inc. cat #HP3) was injected into mice. Tumor sections were stained (dark areas) for the level of hypoxia utilizing an anti-hypoxyprobe antibody and standard IHC methods (FIG. 6). The same tumors were stained for the expression of HIF regulated gene carbonic anhydrase IX (CA9) using standard IHC methods (FIG. 7).

[3] = tested on: CD45+ primary AML cells from an AML patient; experiment: Primary AML cells, viable cells and annexin V; type: cell-based, human; details: 4 days
Procedure: as §1

TMD8 cells = experiment: Diffuse large B-cell lymphoma (DLBCL) assay, viable cells by Guava ViaCount; type: cell-based; details: varying concentrations, 7 days
Procedure: Diffuse Large B-Cell Lymphoma (DLBCL) Assay
Equal number of TMD8 cells were plated and treated with varying concentrations of the compound of Example 7 for 7 days. Percent of viable cells was determined using Guava ViaCount reagents (EMD Millipore cat #4000-0040) that contains proprietary dyes that enable the determination of the number of live and dead cells in a sample (FIG. 1).

OCI-AML3 cell line = experiment: Acute myeloid leukemia cell line viability; type: cell-based, human; details: OCI-AML3, various concentrations, 7 days
Procedure: as §1

Gli56 cells = experiment: Glioblastoma cellular assay; type: cell-based; details: Gli56, various concentrations
Text: as §2

NB-1 cells = experiment: Neuroblastoma cellular assay; type: cell-based; details: NB-1, various concentrations
Text: as §2

SMILES: CN1CCN(c2cc(Cn3cc(-c4nc(-c5ccc(OC(F)(F)F)cc5)no4)ccc3=O)ccn2)CC1 [Example 7, 1-methyl-4-(4-((2-oxo-5-(3-(4-(trifluoromethoxy)phenyl)-1,2,4-oxadiazol-5-yl)pyridin-1(2H)-yl)methyl)pyridin-1-ium-2-yl)piperazin-1-ium bis-trifluoroacetate]
- tumor diameter, combination with irradiation (HN5 xenograft): enhance fractionated irradidation
- disease burden (IVIS imaging) ([1]; 60 mg/kg daily oral, NSG mice): reduces disease burden
- survival ([1]; 60 mpk daily oral, relative to vehicle): significantly increased their survival
- cell number (D423 cells): significantly reduced
- tumor growth (NB-1 xenografts): reduces the tumor growth
- IC50 (293T-HRE-GFP-luc cells): < 0.1 µM
- response (viable cells, annexin V) [2]: minimal response
- tumor growth (H460 xenografts; 40 mpk qdx14 oral gavage): inhibited the growth of the H460 xenografts
- carbonic anhydrase IX (CA9) protein expression in tumor (IHC) (H460 xenografts; 40 mpk qdx14 oral, day 15): elimination of hypoxia and CA9 protein expression
- level of hypoxia in tumor (hypoxyprobe IHC) (H460 xenografts; 40 mpk qdx14 oral, day 15): elimination of hypoxia
- number of viable cells [3]: significant decrease
- percentage of apoptotic (annexin V) cells [3]: significant increase
- Percent of viable cells (TMD8 cells): respond robustly
- percent of viable cells normalized to DMSO control (OCI-AML3 cell line): reduced number of viable cells
- cell death (Gli56 cells): cell death readily apparent
- cell number (Gli56 cells): significantly reduced
- cell death (NB-1 cells): cell death readily apparent
- cell number (NB-1 cells): significantly reduced

SMILES: CC(C)Oc1ccc(-c2nnc(-c3ccc(=O)n(Cc4cccc(C(C)(C)O)c4)c3)o2)cc1 [Example 263, 1-{[3-(2-hydroxypropan-2-yl)phenyl]methyl}-5-{5-[4-(propan-2-yloxy)phenyl]-1,3,4-oxadiazol-2-yl}-1,2-dihydropyridin-2-one]
- IC50 (293T-HRE-GFP-luc cells; 6 h): 0.1 to 1 µM

SMILES: CC(C)Oc1ccc(-c2nnc(-c3ccc(=O)n(Cc4cccc(N5CCC(S(C)(=O)=O)CC5)c4)c3)o2)cc1 [Example 264, 1-{[3-[4-methanesulfonylpiperidin-1-yl)phenyl]methyl}-5-{5-[4-(propan-2-yloxy)phenyl]-1,3,4-oxadiazol-2-yl}-1,2-dihydropyridin-2-one]
- IC50 (293T-HRE-GFP-luc cells; 6 h): 0.1 to 1 µM

SMILES: COc1cccc(Cn2c(C)ccc(-c3nc(-c4ccc(OC(F)(F)F)cc4)no3)c2=O)c1 [Example 265, 1-[(3-methoxyphenyl)methyl]-6-methyl-3-{3-[4-(trifluoromethoxy)phenyl]-1,2,4-oxadiazol-5-yl}-1,2-dihydropyridin-2-one]
- IC50 (293T-HRE-GFP-luc cells; 6 h): 0.1 to 1 µM

SMILES: Cc1ccc(-c2nc(-c3ccc(OC(F)(F)F)cc3)no2)c(=O)n1Cc1cccc(OC(F)F)c1 [Example 266, 1-{[3-(difluoromethoxy)phenyl]methyl}-6-methyl-3-{3-[4-(trifluoromethoxy)phenyl]-1,2,4-oxadiazol-5-yl}-1,2-dihydropyridin-2-one]
- IC50 (293T-HRE-GFP-luc cells; 6 h): 0.1 to 1 µM

SMILES: Cc1ccc(-c2nc(-c3ccc(OC(F)(F)F)cc3)no2)c(=O)n1Cc1cccc(S(C)(=O)=O)c1 [Example 267, 1-[(3-methanesulfonylphenyl)methyl]-6-methyl-3-{3-[4-(trifluoromethoxy)phenyl]-1,2,4-oxadiazol-5-yl}-1,2-dihydropyridin-2-one]
- IC50 (293T-HRE-GFP-luc cells; 6 h): 0.1 to 1 µM

SMILES: Cc1ccc(-c2nc(-c3ccc(OC(F)(F)F)cc3)no2)c(=O)n1Cc1cccc(S(N)(=O)=O)c1 [Example 268, 3-[(6-methyl-2-oxo-3-{3-[4-(trifluoromethoxy)phenyl]-1,2,4-oxadiazol-5-yl}-1,2-dihydropyridin-1-yl)methyl]benzene-1-sulfonamide]
- IC50 (293T-HRE-GFP-luc cells; 6 h): 0.1 to 1 µM

SMILES: CN1CCN(c2cccc(Cn3cccc(-c4nc(-c5ccc(OC(F)(F)F)cc5)no4)c3=O)c2)CC1 [Example 270, 1-{[3-(4-methylpiperazin-1-yl)phenyl]methyl}-3-{3-[4-(trifluoromethoxy)phenyl]-1,2,4-oxadiazol-5-yl}-1,2-dihydropyridin-2-one]
- IC50 (293T-HRE-GFP-luc cells; 6 h): < 0.1 µM
